Measured values reported in article PMC9518248, “Inhibition of Toxoplasma gondii by 1,2,4-triazole-based compounds: marked improvement in selectivity relative to the standard therapy pyrimethamine and sulfadiazine” (Journal of Enzyme Inhibition and Medicinal Chemistry, 2022).
Values after ≈ are worked out from the molar mass of the structure shown. Where two headings read alike, the source gives them in different places.

Columns and labels:
[1] = tested on: T. gondii RH-GFP; design: method as in PMID 31022878, PMID 30744161; details: thiosemicarbazides 1a–27a, cited from earlier work; for SI: CC30/IC50Tg; for IC50Tg: T. gondii infected Hs27 cells
[2] = tested on: mouse fibroblasts L929 cells; design: method as in PMID 31022878, PMID 30744161; details: thiosemicarbazides 1a–27a; cited from earlier work
[3] = tested on: T. gondii RH-GFP; experiment: Antiparasitic assay: T. gondii RH-GFP proliferation in Hs27 cells; assay type: cell-based, Toxoplasma gondii; details: for IC50: Toxoplasma gondii, read-out: IC50Tg; for SI: selectivity index, CC30 (L929)/IC50Tg
[4] = tested on: mouse fibroblasts L929 cells; experiment: Cell viability assay (MTT, ISO 10993-5); assay type: cell-based; details: 24 h, highest dilution causing 30% or higher destruction of cells
Method: Culture medium RPMI 1640, without phenol red (Biowest, Nuaille, France) supplemented with 10% FBS, 2 mM […] penicillin, 100 μg/mL streptomycin were used. Briefly, 1 × 10^4/well of L929 cells were placed in 96-well plates and incubated for 24 h at 37 °C and 10% CO2. Afterwards, the old culture medium was replaced with 100 μL of the compound, drug or inhibitor, diluted in culture medium and the cells treated for 24 h. Additionally, cells were treated with 0.03-4.0% concentration of DMSO as the solvent (data not shown). Then, 50 μL of 1 mg/mL of MTT solution in RPMI 1640 without phenol red was added to each well and incubated for 2 h at 37 °C and 10% CO2. Next, cell culture medium was aspirated carefully and 150 μL of DMSO was added to each well, and the plates were gently mixed. Then, 25 μL 0.1 M glycine buffer (pH 10.5) (Sigma-Aldrich) was added. The optical density at 570 nm using a multi-mode microplate reader SpectraMax® i3 (Syngen, Taipei City, Taiwan) was recorded. The results were expressed as a percentage of viability compared to untreated cells. All experiments were performed in triplicate. The reported methyl thiazolyltetrazole (MTT) method was used to study in vitro cytotoxic profile of the s-triazoles 1b-27b to the host cells (L929). Experiments were performed in accordance with the international standard IS0-10993-5:2009. […] The data for acyclic precursors 1a-27a are also included for comparison[39]^,[40].

[5] = T. gondii RH-GFP in Hs27 cells, 96 h, values above highest tested concentration extrapolated

Structure (SMILES) | SI [1] | IC50Tg [1] | CC30 [2] | IC50 [3, 5] | SI [3] | melting point | CC30 [4] | IC50 ([3]; HS27, 96 h)
Cc1nc[nH]c1C(=O)NNC(=S)Nc1cccc(Br)c1 [8a] | 6.15 | 15.64 µg/mL (≈ 44.2 µM) | 96.12 µg/mL (≈ 271 µM) |  |  |  |  | 
Cc1nc[nH]c1C(=O)NNC(=S)Nc1ccc(F)cc1 [3a] | 2.41 | 110.31 µg/mL (≈ 376 µM) | 266.01 µg/mL (≈ 907 µM) |  |  |  |  | 
Cc1nc[nH]c1C(=O)NNC(=S)Nc1ccc(N(C)C)cc1 [25a] | 0.68 | ∼164.70 µg/mL | 112.2 µg/mL (≈ 352 µM) |  |  |  |  | 
Cc1nc[nH]c1C(=O)NNC(=S)Nc1ccccc1Cl [4a] | 4.02 | 35.61 µg/mL (≈ 115 µM) | 143.15 µg/mL (≈ 462 µM) |  |  |  |  | 
Cc1nc[nH]c1C(=O)NNC(=S)Nc1ccc(Br)cc1 [9a] | 3.36 | 14.57 µg/mL (≈ 41.1 µM) | 48.89 µg/mL (≈ 138 µM) |  |  |  |  | 
Cc1nc[nH]c1C(=O)NNC(=S)Nc1ccc(I)cc1 [12a] | 3.25 | 22.01 µg/mL (≈ 54.9 µM) | 71.58 µg/mL (≈ 178 µM) |  |  |  |  | 
Cc1nc[nH]c1-c1n[nH]c(=S)n1-c1cccc(Cl)c1 [5b, 4–(3-chlorophenyl)-5–(4-methylimidazol-5-yl)-1,2,4-triazole-3-thione] |  |  |  | 310 µg/mL (≈ 1060 µM) | 2.32 | 297.8 °C | 721.27 µg/mL (≈ 2470 µM) | 
Cc1nc[nH]c1C(=O)NNC(=S)Nc1cccc(F)c1 [2a] | 1.10 | 113.45 µg/mL (≈ 387 µM) | 125.17 µg/mL (≈ 427 µM) |  |  |  |  | 
Cc1nc[nH]c1C(=O)NNC(=S)Nc1ccccc1Br [7a] | 7.43 | 27.65 µg/mL (≈ 78.1 µM) | 205.31 µg/mL (≈ 580 µM) |  |  |  |  | 
Cc1nc[nH]c1-c1n[nH]c(=S)n1-c1ccccc1F [1b] |  |  |  | 220 µg/mL (≈ 799 µM) | 5.78 |  | 1270.57 µg/mL (≈ 4620 µM) | 
COc1ccc(NC(=S)NNC(=O)c2nc[nH]c2C)cc1 [20a] | 3.41 | 113.99 µg/mL (≈ 373 µM) | 389.05 µg/mL (≈ 1270 µM) |  |  |  |  | 
Cc1ccc(-n2c(-c3[nH]cnc3C)n[nH]c2=S)cc1Cl [17b, 4–(3-chloro-4-methylphenyl)-5–(4-methylimidazol-5-yl)-1,2,4-triazole-3-thione] |  |  |  | 175 µg/mL (≈ 572 µM) | 2.37 | 264.1 °C | 414.57 µg/mL (≈ 1360 µM) | 
Cc1ccc(-n2c(-c3[nH]cnc3C)n[nH]c2=S)cc1 [16b] |  |  |  | 110 µg/mL (≈ 406 µM) | 10.11 |  | 1113.53 µg/mL (≈ 4100 µM) | 
Cc1nc[nH]c1-c1n[nH]c(=S)n1-c1ccc(F)cc1 [3b] |  |  |  | 206 µg/mL (≈ 748 µM) | 0.55 |  | 113.71 µg/mL (≈ 413 µM) | 
Cc1nc[nH]c1C(=O)NNC(=S)Nc1c(C(C)C)cccc1C(C)C [24a] | 1.95 | 97.72 µg/mL (≈ 272 µM) | 190.55 µg/mL (≈ 530 µM) |  |  |  |  | 
Cc1nc[nH]c1C(=O)NNC(=S)Nc1ccccc1F [1a] | 4.21 | 68.83 µg/mL (≈ 235 µM) | 289.6 µg/mL (≈ 987 µM) |  |  |  |  | 
COc1ccccc1NC(=S)NNC(=O)c1[nH]cnc1C [18a] | 4.17 | 33.11 µg/mL (≈ 108 µM) | 138.04 µg/mL (≈ 452 µM) |  |  |  |  | 
Nc1ccc(S(=O)(=O)Nc2ncccn2)cc1 [SDZ, sulfadiazine] |  |  |  |  | 0.44 |  | 2161.72 µg/mL (≈ 8640 µM) | 4860 µg/mL (≈ 19400 µM)
COc1ccc(NC(=S)NNC(=O)c2[nH]cnc2C)cc1OC [21a] |  | ∼174.98 µg/mL | >500 µg/mL |  |  |  |  | 
Cc1ccccc1NC(=S)NNC(=O)c1[nH]cnc1C [14a] | 1.92 | ∼150.31 µg/mL | 288.4 µg/mL (≈ 997 µM) |  |  |  |  | 

Structure (SMILES) | SI [1] | IC50Tg [1] | CC30 [2] | IC50 [3, 5] | SI [3] | melting point | CC30 [4] | IC50 ([3]; HS27, 96 h)
Cc1nc[nH]c1C(=O)NNC(=S)Nc1ccc(Cl)cc1 [6a] | 1.28 | 73.37 µg/mL (≈ 237 µM) | 94.12 µg/mL (≈ 304 µM) |  |  |  |  | 
COc1cccc(-n2c(-c3[nH]cnc3C)n[nH]c2=S)c1 [19b, 4–(3-methoxyphenyl)-5–(4-methylimidazol-5-yl)-1,2,4-triazole-3-thione] |  |  |  | 96.8 µg/mL (≈ 337 µM) |  | 228.8 °C |  | 
CCOc1ccc(NC(=S)NNC(=O)c2[nH]cnc2C)cc1 [22a] | 5.25 | 95.28 µg/mL (≈ 298 µM) | 500 µg/mL (≈ 1570 µM) |  |  |  |  | 
Cc1ccc(NC(=S)NNC(=O)c2[nH]cnc2C)cc1Cl [17a] | 1.51 | 18.62 µg/mL (≈ 57.5 µM) | 28.18 µg/mL (≈ 87 µM) |  |  |  |  | 
CCc1nc(N)nc(N)c1-c1ccc(Cl)cc1 [PYR, pyrimethamine] |  |  |  | 1.79 µg/mL (≈ 7.2 µM) | 6.34 |  | 11.37 µg/mL (≈ 45.7 µM) | 
Cc1nc[nH]c1C(=O)NNC(=S)Nc1ccccc1I [10a] | 5.00 | 20.31 µg/mL (≈ 50.6 µM) | 101.58 µg/mL (≈ 253 µM) |  |  |  |  | 
Cc1nc[nH]c1C(=O)NNC(=S)Nc1cccc(Cl)c1 [5a] |  | 25.70 µg/mL (≈ 83 µM) | 96.78 µg/mL (≈ 312 µM) |  |  |  |  | 
COc1cccc(NC(=S)NNC(=O)c2[nH]cnc2C)c1 [19a] | 2.08 | 79.65 µg/mL (≈ 261 µM) | 165.96 µg/mL (≈ 543 µM) |  |  |  |  | 
Cc1nc[nH]c1-c1n[nH]c(=S)n1-c1cccc(F)c1 [2b, 4–(3-fluorophenyl)-5–(4-methylimidazol-5-yl)-1,2,4-triazole-3-thione] |  |  |  | 103 µg/mL (≈ 374 µM) | 24.26 | 284 °C |  | 
Cc1nc[nH]c1C(=O)NNC(=S)Nc1cccc(I)c1 [11a] | 8.31 | 10.3 µg/mL (≈ 25.7 µM) | 85.57 µg/mL (≈ 213 µM) |  |  |  |  | 
CCN(CC)c1ccc(NC(=S)NNC(=O)c2[nH]cnc2C)cc1 [26a] | 2.46 | 25.70 µg/mL (≈ 74.2 µM) | 63.1 µg/mL (≈ 182 µM) |  |  |  |  | 
Cc1nc[nH]c1-c1n[nH]c(=S)n1-c1cc(F)ccc1F [13b, 4–(2,5-difluorophenyl)-5–(4-methylimidazol-5-yl)-1,2,4-triazole-3-thione] |  |  |  | 224 µg/mL (≈ 765 µM) | 11.14 | 253.9 °C |  | 
Cc1nc[nH]c1C(=O)NNC(=S)Nc1cc(F)ccc1F [13a] | 2.95 | 53.7 µg/mL (≈ 172 µM) | 158.49 µg/mL (≈ 509 µM) |  |  |  |  | 
CC(=O)c1cccc(-n2c(-c3[nH]cnc3C)n[nH]c2=S)c1 [23b, 4–(3-acetylphenyl)-5–(4-methylimidazol-5-yl)-1,2,4-triazole-3-thione] |  |  |  | 141 µg/mL (≈ 469 µM) | 17.79 | 151.9 °C |  | 
CC(=O)c1cccc(NC(=S)NNC(=O)c2[nH]cnc2C)c1 [23a] | 2.16 | 95.50 µg/mL (≈ 301 µM) | 206.54 µg/mL (≈ 651 µM) |  |  |  |  | 
Cc1ccc(NC(=S)NNC(=O)c2[nH]cnc2C)cc1 [16a] | 0.60 | ∼57.58 µg/mL | 34.67 µg/mL (≈ 120 µM) |  |  |  |  | 
COc1cc(Cc2cnc(N)nc2N)cc(OC)c1OC [TRI, trimethoprim, reference compound] |  |  |  |  | 16.07 |  | 336.20 µg/mL (≈ 1160 µM) | 20.9 µg/mL (≈ 72.1 µM)
Cc1cccc(NC(=S)NNC(=O)c2[nH]cnc2C)c1 [15a] | 1.35 | 37.15 µg/mL (≈ 128 µM) | 50.12 µg/mL (≈ 173 µM) |  |  |  |  | 
COc1ccccc1-n1c(-c2[nH]cnc2C)n[nH]c1=S [18b, 4–(2-methoxyphenyl)-5–(4-methylimidazol-5-yl)-1,2,4-triazole-3-thione] |  |  |  | 93.2 µg/mL (≈ 324 µM) |  | 145.2 °C |  | 
